The source made the active and inactive calls. Cut-off read from the data, not from the text of the source, for most assays here: actives have a measured EC50 and inactives only a lower limit.
Assays:
[1] = biological target: T1, Heat shock factor protein 1 (Mus musculus, UniProt P38532); experiment: enhancement of HSF1-driven luciferase signal – cell-based, NIH3T3, luminescence, dose retest, confirmation (AID 435004); type: functional;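 note: stress induced by proteasome inhibitor MG132 added 30 min after compound; luciferase reporter driven by HSF1 response element in NIH3T3 cells; actives raise luminescence as potentiators of the MG132 stress response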
T1 sequence (P38532 whole entry): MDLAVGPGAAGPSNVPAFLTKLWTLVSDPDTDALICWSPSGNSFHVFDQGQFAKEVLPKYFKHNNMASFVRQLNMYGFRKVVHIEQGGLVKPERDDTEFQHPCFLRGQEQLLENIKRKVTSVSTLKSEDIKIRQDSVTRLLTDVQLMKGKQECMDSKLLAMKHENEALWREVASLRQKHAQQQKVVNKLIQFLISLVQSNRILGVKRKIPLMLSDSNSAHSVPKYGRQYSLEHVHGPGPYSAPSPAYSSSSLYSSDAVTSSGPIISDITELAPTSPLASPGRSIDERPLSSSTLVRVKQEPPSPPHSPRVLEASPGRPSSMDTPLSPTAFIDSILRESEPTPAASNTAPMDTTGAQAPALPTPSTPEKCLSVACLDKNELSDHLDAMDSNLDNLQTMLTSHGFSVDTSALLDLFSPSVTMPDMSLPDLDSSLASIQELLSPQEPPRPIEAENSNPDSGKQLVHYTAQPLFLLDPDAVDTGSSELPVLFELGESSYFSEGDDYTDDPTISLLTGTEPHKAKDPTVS

[2] = Luminescence Cell-Based Dose Confirmation HTS to Identify Activators of 5'UTR Stem-Loop Driven Alpha-Synuclein mRNA Translation in H4 Neuroglioblastoma Cells. [Related pubchem assays: 1829 (Project Summary), 1814 (Primary HTS)]; type: functional
[3] = Luminescence Cell-Based Dose Response HTS to Identify Activators of Luciferase Translation or Activity in H4 […] Cells. [Related pubchem assays: 1829 (Project Summary), 1814 (Primary HTS)]; type: functional
[4] = biological target: T2, Protein RecA (Mycobacterium tuberculosis, UniProt P9WHJ3); experiment: Fluorescence Cell-Free Homogeneous Dose Retest to Identify Inhibitors of RecA-Intein Splicing Activity. [Related pubchem assays (depositor defined):AID2097, AID2223, AID489010, AID492950]; type: functional
T2 sequence (P9WHJ3 whole entry): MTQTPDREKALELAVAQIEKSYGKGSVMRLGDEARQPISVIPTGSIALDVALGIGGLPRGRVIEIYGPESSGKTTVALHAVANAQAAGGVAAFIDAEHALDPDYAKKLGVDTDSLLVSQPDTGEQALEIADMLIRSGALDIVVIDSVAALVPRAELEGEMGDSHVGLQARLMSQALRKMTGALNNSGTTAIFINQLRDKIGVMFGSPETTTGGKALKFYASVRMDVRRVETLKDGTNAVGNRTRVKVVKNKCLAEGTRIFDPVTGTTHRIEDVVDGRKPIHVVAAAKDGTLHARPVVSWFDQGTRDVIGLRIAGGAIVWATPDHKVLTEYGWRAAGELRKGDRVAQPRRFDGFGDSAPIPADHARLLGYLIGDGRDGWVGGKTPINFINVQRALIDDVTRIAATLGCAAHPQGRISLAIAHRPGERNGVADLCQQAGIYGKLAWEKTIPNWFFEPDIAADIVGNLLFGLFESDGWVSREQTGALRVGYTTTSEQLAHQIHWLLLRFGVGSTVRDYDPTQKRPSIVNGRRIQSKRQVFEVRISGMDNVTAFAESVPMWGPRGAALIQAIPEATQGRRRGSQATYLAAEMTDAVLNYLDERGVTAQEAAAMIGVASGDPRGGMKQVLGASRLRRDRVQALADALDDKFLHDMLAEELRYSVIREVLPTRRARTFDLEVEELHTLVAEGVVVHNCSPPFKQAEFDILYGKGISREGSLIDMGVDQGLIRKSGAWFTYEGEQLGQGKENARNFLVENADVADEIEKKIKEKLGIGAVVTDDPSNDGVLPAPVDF

[5] = biological target: T3, Replicative DNA helicase DnaB (Mycobacterium tuberculosis, UniProt P9WMR3); experiment: DnaB intein splicing inhibitors, dose response, biochemical, cell-free fluorescence (AID 449749); type: functional
T3 sequence (P9WMR3 whole entry): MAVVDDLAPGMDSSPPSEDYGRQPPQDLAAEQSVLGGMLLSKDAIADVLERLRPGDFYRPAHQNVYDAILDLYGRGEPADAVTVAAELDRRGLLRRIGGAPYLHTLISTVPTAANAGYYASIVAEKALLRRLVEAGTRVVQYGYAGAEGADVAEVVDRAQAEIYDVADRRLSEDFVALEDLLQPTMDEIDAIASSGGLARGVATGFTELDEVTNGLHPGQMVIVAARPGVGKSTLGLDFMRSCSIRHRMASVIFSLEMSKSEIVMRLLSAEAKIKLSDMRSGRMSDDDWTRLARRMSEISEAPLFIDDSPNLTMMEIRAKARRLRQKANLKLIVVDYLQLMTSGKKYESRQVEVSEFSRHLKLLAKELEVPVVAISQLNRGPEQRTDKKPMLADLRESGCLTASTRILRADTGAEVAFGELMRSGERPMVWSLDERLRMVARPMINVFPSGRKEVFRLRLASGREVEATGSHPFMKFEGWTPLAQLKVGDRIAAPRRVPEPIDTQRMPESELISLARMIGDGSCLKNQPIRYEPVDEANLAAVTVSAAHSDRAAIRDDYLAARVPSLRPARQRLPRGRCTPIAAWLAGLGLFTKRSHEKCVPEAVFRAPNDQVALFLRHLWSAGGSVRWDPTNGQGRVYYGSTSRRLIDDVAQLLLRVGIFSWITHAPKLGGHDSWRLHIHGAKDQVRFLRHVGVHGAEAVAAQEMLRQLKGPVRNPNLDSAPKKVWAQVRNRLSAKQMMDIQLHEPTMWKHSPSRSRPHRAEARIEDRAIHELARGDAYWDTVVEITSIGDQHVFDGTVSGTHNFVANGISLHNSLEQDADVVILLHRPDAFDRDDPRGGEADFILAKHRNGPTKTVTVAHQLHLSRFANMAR

[6] = system: H4; experiment: Luminescence Cell-Based Dose Response HTS to Identify Activators of 5'UTR Stem-Loop Driven Prion Protein mRNA Translation in H4 Neuroglioblastoma Cells. [Related pubchem assays: 1829 (Project Summary), 1814 (Primary HTS)]; type: functional; settings: Homo sapiens
[7] = NIH-3T3 fibroblast cytotoxicity, dose response, cytotoxicity control, cell-based, fluorescence, Alamar Blue, secondary assay (AID 2327); type: functional;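 note: NIH-3T3 mouse fibroblasts cultured with fluconazole at 8 µg/mL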
[8] = fluconazole-exposed Candida albicans growth modulators – fluorescence, retest, confirmation (AID 2467); type: functional, cell-based
[9] = biological target: T4, Rac GTPase-activating protein 1 (Homo sapiens, UniProt Q9H0H5); experiment: blockers of MgcRacGAP-driven Rac1 GTP hydrolysis – biochemical, ADP Hunter fluorescence, primary and confirmatory, confirmation (AID 624330); type: functional
T4 sequence (Q9H0H5 whole entry): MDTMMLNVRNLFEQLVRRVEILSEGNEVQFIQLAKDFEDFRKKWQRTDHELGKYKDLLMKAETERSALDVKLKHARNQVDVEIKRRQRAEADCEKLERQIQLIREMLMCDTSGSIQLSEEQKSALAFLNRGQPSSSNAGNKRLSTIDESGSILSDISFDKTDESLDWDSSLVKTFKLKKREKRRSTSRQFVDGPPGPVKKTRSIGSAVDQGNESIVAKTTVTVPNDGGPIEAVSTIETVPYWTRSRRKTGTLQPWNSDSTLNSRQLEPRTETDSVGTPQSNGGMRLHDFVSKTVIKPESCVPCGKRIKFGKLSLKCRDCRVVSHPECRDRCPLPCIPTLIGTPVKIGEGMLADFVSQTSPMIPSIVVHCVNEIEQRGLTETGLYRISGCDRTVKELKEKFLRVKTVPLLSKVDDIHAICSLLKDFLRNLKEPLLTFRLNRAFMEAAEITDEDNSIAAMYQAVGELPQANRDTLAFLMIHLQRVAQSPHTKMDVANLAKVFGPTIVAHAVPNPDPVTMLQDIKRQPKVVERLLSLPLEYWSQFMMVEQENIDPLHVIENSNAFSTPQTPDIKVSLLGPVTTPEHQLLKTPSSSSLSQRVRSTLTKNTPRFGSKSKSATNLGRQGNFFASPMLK

## CC1(C)Cc2c(C#N)c(N3CCCC3)nc(-c3ccco3)c2CO1
[1]
  EC50: > 260 µM (inactive)

## O=C(NC1=NCCS1)c1ccc(-c2ccc(Cl)cc2)o1
[2]
  EC50: 21.4 µM (active)
[3]
  EC50: 0.306 µM (active)

## Cc1ccc(-c2noc(-c3ccccc3C(=O)N3CCOCC3)n2)cc1
[4]
  EC50: > 380 µM (inactive)
[5]
  AC50: 196 µM (active)

## COC(=O)Cc1ccc(NC(=O)c2ccc(C)c(C)c2)cc1
[1]
  EC50: 69.4 µM (active)

## CC(=O)c1cnc2nc(SCc3ccccc3)nn2c1C
[6]
  EC50: 74.8 µM (active)
[2]
  EC50: 0.116 µM (active)
[3]
  EC50: 0.131 µM (inconclusive)

## COc1cccc(C2=NO[C@@H]3C(=O)N(c4ccc5c(c4)OCCO5)C(=O)[C@H]23)c1OC
[6]
  EC50: > 120 µM (not active)
[2]
  EC50: > 120 µM (not active)
[3]
  EC50: > 120 µM (not active)

## CC(=O)C1=C(O)C(=O)N(c2ccc(Br)cn2)C1c1ccc(Br)cc1 (stereo unspecified)
[6]
  EC50: 0.987 µM (active)
[2]
  EC50: > 120 µM (not active)
[3]
  EC50: 0.112 µM (active)

## O=C(Nc1ccc2c(c1)C(=O)OC2)c1ccc(Cl)cc1
[1]
  EC50: > 260 µM (inactive)

## Cn1cc(CNC(=O)c2sc3cccc(Cl)c3c2Cl)cn1
[1]
  EC50: > 260 µM (inactive)

## Cc1nc(-c2ccc(S(=O)(=O)Oc3ccccc3Cl)s2)cs1
[6]
  EC50: 2.84 µM (active)
[2]
  EC50: 13 µM (active)
[3]
  EC50: 12 µM (active)

## O=C(NNc1ccc(Cl)cc1)c1c(F)cccc1Cl
[7]
  EC50: > 150 µM (inactive)
[8]
  EC50: > 38 µM (not active)

## CCCCOc1ccc(CSc2nc[nH]n2)cc1
[1]
  EC50: 106 µM (active)

## COc1cc(C)c(Cl)c(C)c1S(=O)(=O)NC1CC(C)(C)NC(C)(C)C1
[6]
  EC50: > 120 µM (not active)
[2]
  EC50: 15.2 µM (active)
[3]
  EC50: > 120 µM (not active)

## CCCCN(C(=O)/C=C/c1ccco1)c1c(N)n(CCC)c(=O)[nH]c1=O
[1]
  EC50: > 260 µM (inactive)

## Nc1ccc(S(=O)(=O)Nc2nccc(/C=C/c3ccc(Cl)cc3Cl)n2)cc1
[6]
  EC50: > 120 µM (not active)
[2]
  EC50: > 120 µM (not active)
[3]
  EC50: 13.6 µM (active)

## CCc1nnc(NC(=O)C23CC4CC(CC(C4)C2)C3)s1
[6]
  EC50: 8.2 µM (active)
[2]
  EC50: 19 µM (active)
[3]
  EC50: 45.6 µM (active)

## CN(C)/C=C1\NC(=S)N(c2ccccc2)C1=O
[9]
  IC50: 65.4 µM (active)

## CCOC(=O)Cn1c(S(=O)(=O)Cc2ccc(F)cc2)nc(-c2ccccc2)c1-c1ccccc1
[1]
  EC50: > 260 µM (inactive)

## O=C(CN1CCN(c2ccc(O)cc2)CC1)Nc1ccc2c(c1)OCCCO2
[9]
  IC50: 49.7 µM (active)

## O=c1c2ccccc2cnn1CCOc1cccc(Br)c1
[6]
  EC50: 6.06 µM (active)
[2]
  EC50: 27.5 µM (active)
[3]
  EC50: 33.9 µM (active)

## Cc1cccc(C)c1N1CCN(S(=O)(=O)c2ccc(F)cc2)CC1
[1]
  EC50: > 260 µM (inactive)

## COc1ccc(-c2ccc(=O)n(CC(=O)Nc3cccc(O)c3)n2)cc1OC
[7]
  EC50: > 150 µM (inconclusive)
[8]
  EC50: > 38 µM (not active)

## COC(=O)C1(O)CC(CC(C)C)=NN1C(=O)c1ccccc1 (stereo unspecified)
[1]
  EC50: > 260 µM (inactive)

## Cc1cc(O)ccc1Nc1nc(-c2cccnc2)cs1
[6]
  EC50: 6.4 µM (active)
[2]
  EC50: 7.92 µM (active)
[3]
  EC50: 0.389 µM (active)

## Cc1cc(C)nc(SC2=CS(=O)(=O)c3ccccc32)n1
[6]
  EC50: > 120 µM (not active)
[2]
  EC50: 12.1 µM (active)

## CCOc1ccc(NC(=O)Cn2nnc(C(=O)NCc3ccco3)c2N)cc1
[1]
  EC50: > 260 µM (inactive)

## O=C(CN1CCCCC1)Nc1scc2c1c(=O)oc1ccccc12
[6]
  EC50: 59.7 µM (active)
[2]
  EC50: > 120 µM (not active)
[3]
  EC50: 16.1 µM (active)

## COc1ccc2c(c1)C(=C(C#N)C#N)C(=O)N2CCc1ccccc1
[4]
  EC50: 21.2 µM (active)
[5]
  AC50: 3.97 µM (active)

## CCN1CCN(CCCOc2ccccc2-c2ccccc2)CC1
[9]
  IC50: 96.9 µM (active)

## CCOC(=O)C(CCOc1cccc(CC)c1)C(=O)OCC
[1]
  EC50: 59.6 µM (active)

## COc1ccc(-c2c(C)nn3c(Cl)c(C)c(C)nc23)cc1
[1]
  EC50: 108 µM (active)

## CC1=C(C(=O)N2CCOCC2)C(c2c(C)cc(C)cc2C)NC(S)=N1 (stereo unspecified)
[1]
  EC50: > 260 µM (inactive)

## Cn1ccc(C(=O)N/N=C/c2ccncc2)n1
[1]
  EC50: > 260 µM (inactive)

## COc1cc(/C=N/NC(=O)c2cc[n+]([O-])cc2)ccc1O
[9]
  IC50: 32.7 µM (active)

## C/C(CC(=O)Nc1ccccc1[N+](=O)[O-])=N\NC(=O)COc1ccccc1C
[4]
  EC50: 3.85 µM (active)
[5]
  AC50: 10.5 µM (active)

## CN1CCN(/N=C/c2nc(-c3ccc(Cl)cc3)n3ccccc23)CC1
[9]
  IC50: 27.1 µM (active)

## CC1(C)Cc2c(C#N)c(N)n(-c3ccccc3)c(=S)c2CO1
[1]
  EC50: > 260 µM (inactive)

## Cc1ccc(NC(=O)CSc2nnc([C@@H](N)Cc3c[nH]c4ccccc34)o2)c(C)c1
[7]
  EC50: > 150 µM (inactive)
[8]
  EC50: > 38 µM (not active)

— ChEMBL document CHEMBL1201862, “PubChem BioAssay data set” (2004)
